This note sets out measurements from ChEMBL document CHEMBL3507680, “University of Dundee, Gates Library screen for HepG2 cell viability”.

The data set in a line: Human HepG2 cell viability assay in 384 well format. The class given is toxicity, cell-based. On the set-up: dose 125 nL, time 70.5 hour; concentration not given beside the values. The note with it: HepG2 cells, read-out: Inhibition.

Consider `CNC(=O)c1cc(NC(=O)NC2CC2)ccc1F`, for which the cytotoxicity at 70.5 h was -8.55%.

`Cc1cc(C)n(CC(C)NC(=O)NCc2c(C)cc(C)[nH]c2=O)n1` (configuration not stated): the cytotoxicity at 70.5 h is 14.3%.

`CCC(NC(=O)c1cc(OC)c2c(c1)OCCO2)c1cccs1` (configuration not stated): the cytotoxicity at 70.5 h is -8.09%.

As to `COc1ccc2c(c1)NC(=O)C2OC(=O)CC(C)(C)C` (configuration not stated), the cytotoxicity at 70.5 h was -9.54%.

`C=C(C)CN1CCC(NC(=O)Nc2ccc(F)c(C(=O)NC)c2)CC1`: the cytotoxicity at 70.5 h is 21.9%.

`CC(NC(=O)NCC(C)(C)C(N)=O)c1nc(-c2ccccc2)cs1` (configuration not stated): the cytotoxicity at 70.5 h was -5.18%.

For `O=C(CCc1cccs1)Nc1ccnn1C1CCS(=O)(=O)C1` (configuration not stated), the cytotoxicity at 70.5 h is -1.32%.

Consider `Cc1nc(C)c(CNC(=O)N2CCN(c3ccc(Cl)cn3)CC2)s1`, for which the cytotoxicity at 70.5 h is -3.03%.

On to `Cc1cc(CNC(=O)N2CCN(c3ccc(Cl)cn3)CC2)c(C)o1`, for which the cytotoxicity at 70.5 h turned out to be 18.2%.

In the case of `Cc1nc(CNC(=O)N2CCN(c3ccc(Cl)cn3)CC2)sc1C`, the cytotoxicity at 70.5 h was -3.28%.

As to `COc1c(Cl)cccc1NCc1csc(NC(C)=O)n1`, the cytotoxicity at 70.5 h was 3.58%.

Consider `O=S(=O)(Cc1ccon1)N1CCN(c2ccncc2Cl)CC1`, for which the cytotoxicity at 70.5 h was -11.7%.

Regarding `O=C(NCC1(O)CCC1)NC(c1cc(F)ccc1F)C1CC1` (configuration not stated), the cytotoxicity at 70.5 h was -6.17%.

Take `Cc1cc(N2CCCCC2)c(C#N)c(C)n1`: the cytotoxicity at 70.5 h was -5.91%.

Turning to `CCOc1c(F)cccc1C(=O)N(CC)C(C)c1cccnc1` (configuration not stated), the cytotoxicity at 70.5 h was -6.68%.

Turning to `CN(CCCNC(=O)C1CCc2cn[nH]c2C1)c1ccc(F)cc1` (configuration not stated), the cytotoxicity at 70.5 h stood at 16.9%.

As to `N#CC1(NC(=O)CN2CCc3c(ncn3C3CC3)C2)CCCC1`, the cytotoxicity at 70.5 h is -2.71%.

Regarding `CC(C)Cc1noc(CC2CCS(=O)(=O)C2)n1` (configuration not stated), the cytotoxicity at 70.5 h is -6.88%.

Take `Cc1nnc(CN(C)CC(=O)N2CCCN(C3CCCC3)CC2)n1C`: the cytotoxicity at 70.5 h was -6.96%.

Turning to `COC(=O)CSCc1noc(-c2ccc(C)cc2)n1`, the cytotoxicity at 70.5 h is 0.48%.

On to `CSCCC(NC(N)=O)C(=O)Nc1ccc(-n2cccn2)nc1` (configuration not stated), for which the cytotoxicity at 70.5 h is -7.37%.

For `O=C(C1CCCCN1Cc1nccn1CC(F)(F)F)N1CCCC1` (configuration not stated), the cytotoxicity at 70.5 h is -2.02%.

As for `CN(Cc1ccc2c(c1)OCCO2)c1ncc(S(N)(=O)=O)s1`, the cytotoxicity at 70.5 h worked out at 8.35%.

For `CCN(Cc1ccc2c(c1)OCO2)c1ncc(S(N)(=O)=O)s1`, the cytotoxicity at 70.5 h was 1.59%.

On to `CC(C)c1nc2n(n1)CC(NCc1cc3ccccc3o1)CC2` (configuration not stated), for which the cytotoxicity at 70.5 h was found to be 12.7%.

`CN(C)c1ccc(C(=O)N(Cc2ccncc2)CC2CCCO2)nn1` (configuration not stated): the cytotoxicity at 70.5 h is -4.51%.

For the molecule `O=C(Nc1cccnc1)NC1CCN(c2ccccc2OC(F)F)C1` (configuration not stated), the cytotoxicity at 70.5 h was -3.6%.

Turning to `CC(C)Cc1noc(CN(C)C2CCS(=O)(=O)C2)n1` (configuration not stated), the cytotoxicity at 70.5 h is -3.8%.

In the case of `COc1ccc(NC(=O)N2CCC(CSC)C2)cc1C` (configuration not stated), the cytotoxicity at 70.5 h came out at 2.45%.

Take `COC(CNC(=O)c1ccc(NC(C)=O)cc1)c1cccc(Cl)c1` (configuration not stated): the cytotoxicity at 70.5 h was -5.6%.

For `NC(=O)C1CCCN1Cc1nccn1CC(F)(F)F` (configuration not stated), the cytotoxicity at 70.5 h amounted to 10.6%.

In the case of `O=C(c1coc(-c2ccccc2)n1)N1CCS(=O)(=O)CC1`, the cytotoxicity at 70.5 h was -3.26%.

In the case of `O=C(c1coc(-c2ccccc2)n1)N1CCCC1`, the cytotoxicity at 70.5 h came out at 3.66%.

For the molecule `O=C(c1coc(-c2ccccc2)n1)N1CCCCC1`, the cytotoxicity at 70.5 h is -10.3%.

As for `Cc1c(C(=O)NC2CCCOC2)nnn1-c1ccc(Cl)cc1F` (configuration not stated), the cytotoxicity at 70.5 h was -0.806%.

Turning to `CN(Cc1nc(C(C)(C)C)no1)C1CCS(=O)(=O)C1` (configuration not stated), the cytotoxicity at 70.5 h was 6.01%.

For `CC(CNC(=O)c1cccnc1)Oc1ccc(F)cc1` (configuration not stated), the cytotoxicity at 70.5 h was 8.38%.

`CC(NC(=O)NCCC1=CCCCC1)c1nncn1C` (configuration not stated): the cytotoxicity at 70.5 h is 35.8%.

For the molecule `CC(C)(C)c1noc(CN2CCCc3cc(OC(F)(F)F)ccc32)n1`, the cytotoxicity at 70.5 h is -2.73%.

On to `NC(=O)NC(=O)C(c1ccccc1)N1CCN(Cc2ccsc2)CC1` (configuration not stated), for which the cytotoxicity at 70.5 h was -7.31%.

Regarding `COc1ccc(OCCN(C)S(=O)(=O)c2cnn(C)c2)cc1`, the cytotoxicity at 70.5 h was -6.09%.

Turning to `O=C(NCC1CCC1)c1ccnc(-n2ccnc2)c1`, the cytotoxicity at 70.5 h was 1.75%.

For the molecule `O=C(NC1CCc2cc(Cl)ccc21)C1CCN(C(=O)C2CC2)CC1` (configuration not stated), the cytotoxicity at 70.5 h was -4.11%.

In the case of `Cc1cc(NCCC(=O)NC2CCCCC2)nc(-c2ccncc2)n1`, the cytotoxicity at 70.5 h amounted to 24.9%.

`CN1CCOC(CNC(=O)C2(c3cccc(Cl)c3)CC2)C1` (configuration not stated): the cytotoxicity at 70.5 h is -5.99%.

Regarding `Cc1cccc(C2(C(=O)NCC3CN(C)CCO3)CC2)c1` (configuration not stated), the cytotoxicity at 70.5 h turned out to be 2.72%.

As to `Cc1cc(NCCC(=O)NC(C)C)nc(-c2ccncc2)n1`, the cytotoxicity at 70.5 h came to 3.03%.

Turning to `CN1CCOC(CNC(=O)C2(c3ccccc3)CCC2)C1` (configuration not stated), the cytotoxicity at 70.5 h is -5.1%.

Turning to `N#Cc1cccc(OCc2ccoc2C(=O)N2CCCCC2)c1`, the cytotoxicity at 70.5 h turned out to be 3.19%.

`Cc1cc(C)cc(C(=O)NCCS(=O)(=O)N2CCSCC2)c1`: the cytotoxicity at 70.5 h amounted to 20.5%.

As to `COc1ccccc1OCC(=O)Nc1ncccc1C`, the cytotoxicity at 70.5 h is -3.19%.

On to `COCCN(Cc1ccc(F)cc1Cl)C(=O)c1cc(C)no1`, for which the cytotoxicity at 70.5 h was -1.27%.

On to `Cc1ccn(-c2ccccc2NCc2cccnc2)n1`, for which the cytotoxicity at 70.5 h turned out to be 5.47%.

On to `Cc1ccc(S(C)(=O)=O)cc1C(=O)N(C)Cc1ccco1`, for which the cytotoxicity at 70.5 h is -3.41%.

Consider `CCc1nc(C)c(C(=O)N2CCCC(c3noc(C)n3)C2)s1` (configuration not stated), for which the cytotoxicity at 70.5 h is -6.51%.

For the molecule `CC(=O)N1CCN(C(=O)C(C)OCC(F)(F)F)CC1` (configuration not stated), the cytotoxicity at 70.5 h was 33.2%.

For `Cc1cccc(C)c1NC(=O)CN(C)C(C)c1nc(C(C)(C)C)no1` (configuration not stated), the cytotoxicity at 70.5 h was -88.9%.

Consider `CCc1noc(C(C)N(C)CC(=O)Nc2ccc(Br)cc2C)n1` (configuration not stated), for which the cytotoxicity at 70.5 h is -96.5%.

On to `CC1(NC(=O)Cc2cccs2)CCS(=O)(=O)C1` (configuration not stated), for which the cytotoxicity at 70.5 h is -85.8%.

Consider `Nc1cc(CCCNC(=O)NC2CCCC2)nn1-c1ccccc1`, for which the cytotoxicity at 70.5 h is -102%.

As for `CC(NC(=O)C1=NN(C)C(=O)CC1)c1ccc(Cl)cc1` (configuration not stated), the cytotoxicity at 70.5 h is -110%.

For `CC(NC(=O)C1=NN(C)C(=O)CC1)c1cccc(Cl)c1` (configuration not stated), the cytotoxicity at 70.5 h is -85.8%.

With `CCSc1cc(C(=O)NCCC(=O)N(C)C)ccn1`, the cytotoxicity at 70.5 h is -103%.

Regarding `Cc1ccc(C(=O)NCC(C)CN2CCCC2=O)c(=O)[nH]1` (configuration not stated), the cytotoxicity at 70.5 h was -113%.

Regarding `CCCc1cc(NC2CCc3nc(C)nn3C2)n2ncnc2n1` (configuration not stated), the cytotoxicity at 70.5 h was -112%.

Take `Cc1cnn(CC2CCCN2Cc2coc(-c3ccc(F)cc3)n2)c1` (configuration not stated): the cytotoxicity at 70.5 h is -115%.

As to `Cc1cc(NC2CCc3nc(C)nn3C2)n2ncnc2n1` (configuration not stated), the cytotoxicity at 70.5 h is -98.6%.

As for `O=C(NS(=O)(=O)c1ccccc1C(F)(F)F)c1cccc2c1OCCO2`, the cytotoxicity at 70.5 h was -75.1%.

Turning to `Cc1ccc(C)c(S(=O)(=O)NC(=O)c2cccc3c2OCCO3)c1`, the cytotoxicity at 70.5 h is -104%.

`COCCC(C)NC(=O)N1CCC(n2ccc(C(F)(F)F)n2)CC1` (configuration not stated): the cytotoxicity at 70.5 h is -98.6%.

Regarding `C[C@H]1CN(C(=O)c2cccc(F)c2Cl)CCN1S(C)(=O)=O`, the cytotoxicity at 70.5 h is -95.8%.

For `O=C(NCc1ccon1)N1CCC(n2ccc(C(F)(F)F)n2)CC1`, the cytotoxicity at 70.5 h is -94.1%.

As for `CCc1noc(C(C)N(C)CC(=O)Nc2cccc(C)c2C)n1` (configuration not stated), the cytotoxicity at 70.5 h was 20.2%.

Take `CCSc1cc(C(=O)NCC(C)(C)N(C)C)ccn1`: the cytotoxicity at 70.5 h is -90.6%.

With `CC(OCC(F)(F)F)C(=O)N1CCOCC1` (configuration not stated), the cytotoxicity at 70.5 h was -99.6%.

In the case of `CCc1ncc2c(n1)CN(Cc1cnc(C)cn1)CC2`, the cytotoxicity at 70.5 h was -72.8%.

Take `CCc1noc(C(C)N(C)CC(=O)Nc2ccccc2Cl)n1` (configuration not stated): the cytotoxicity at 70.5 h is -89.8%.

For the molecule `CCc1noc(C(C)N(C)CC(=O)Nc2ccc(Cl)c(C(F)(F)F)c2)n1` (configuration not stated), the cytotoxicity at 70.5 h is -97%.

Turning to `c1csc(-c2nc(CN3CCCCC3Cn3cccn3)co2)c1` (configuration not stated), the cytotoxicity at 70.5 h is -58%.

`Cc1nc(CN2CCc3cnc(C(C)C)nc3C2)oc1C`: the cytotoxicity at 70.5 h was -77.4%.

In the case of `CC(C)C(C(=O)N1CCCN(Cc2cscn2)CC1)n1cncn1` (configuration not stated), the cytotoxicity at 70.5 h was -4.6%.

On to `O=C(c1cc(Cl)c2c(c1)OCO2)N1CCN(c2cnccn2)CC1`, for which the cytotoxicity at 70.5 h is 0.695%.

Regarding `Cc1ccc(C(=O)NC2CCN(Cc3nc(C(C)C)no3)CC2)s1`, the cytotoxicity at 70.5 h was -5.38%.

As for `Cc1c(CC(=O)N2CCSCC2)nnn1-c1cccc(Cl)c1`, the cytotoxicity at 70.5 h was 23.4%.

As for `O=C(c1cccc(NCCOc2ccc(F)cc2)c1)N1CCOCC1`, the cytotoxicity at 70.5 h was 4.98%.

`CC(C)C(C(=O)N1CCN(Cc2cscn2)CC1)n1cncn1` (configuration not stated): the cytotoxicity at 70.5 h was -1.99%.

As for `CC(C)(NC(=O)CCc1ccco1)c1ccc2c(c1)OCCO2`, the cytotoxicity at 70.5 h was -2.91%.

Turning to `Cc1nc(CN2CCN(C(=O)C(C(C)C)n3cncn3)CC2)cs1` (configuration not stated), the cytotoxicity at 70.5 h was -1.55%.

As for `Cc1cc(CN2CCN(C(=O)C(C(C)C)n3cncn3)CC2)no1` (configuration not stated), the cytotoxicity at 70.5 h is -8.12%.

For the molecule `Cc1ccc(-n2nnc(CC(=O)N3CCN(C4CC4)CC3)c2C)cc1`, the cytotoxicity at 70.5 h is -8.64%.

With `Cc1oc(-c2ccsc2)nc1CC(=O)NCC(C)(C)CN(C)C`, the cytotoxicity at 70.5 h is -9.09%.

For the molecule `COc1ccc(-c2nc(CN3CC(n4cccn4)C3)no2)cc1`, the cytotoxicity at 70.5 h is -5.24%.

Turning to `Cc1cc(C)n(C2CN(Cc3noc(C4CC4)n3)C2)n1`, the cytotoxicity at 70.5 h was determined as 20.6%.

For the molecule `COCC(NC(=O)c1cc(C)n(C)n1)c1cccc(C(F)(F)F)c1` (configuration not stated), the cytotoxicity at 70.5 h is 4.67%.

With `Cc1ccc(-c2nc(CN3CC(n4nc(C)cc4C)C3)no2)cc1`, the cytotoxicity at 70.5 h was -8.79%.

Take `CCn1nc2c(cc1=O)CN(Cc1nc3ccccc3o1)CC2`: the cytotoxicity at 70.5 h is -9.68%.

Consider `CCCn1nc2c(cc1=O)CN(Cc1nc(C)c3ccccc3n1)CC2`, for which the cytotoxicity at 70.5 h is -7.04%.

With `Cn1nc2c(cc1=O)CN(Cc1nc3ccccc3c(=O)[nH]1)CC2`, the cytotoxicity at 70.5 h was -6.45%.

`Cc1ccc(OC2CCN(S(=O)(=O)N(C)C)CC2)nc1`: the cytotoxicity at 70.5 h was -12.1%.

As to `CCc1noc(CN(Cc2cccs2)C2CC2)n1`, the cytotoxicity at 70.5 h amounted to 0.387%.

In the case of `CCOc1cc(CN(C)CCC(=O)OC)ccc1OC(F)F`, the cytotoxicity at 70.5 h is -2.34%.

Take `CC(C)(C)c1cc(=O)[nH]c(C2(N)CCCCC2)n1`: the cytotoxicity at 70.5 h was -4.98%.
